For the experiment, the target named is T1, His6-PDK1 (aa 52-556) (Homo sapiens, UniProt O15530).
T1 construct: 15 μL His6-PDK1 (aa 52-556) 3.33 ng/well); host or cells: baculovirus-infected insect cells
T1 sequence (O15530 52-556): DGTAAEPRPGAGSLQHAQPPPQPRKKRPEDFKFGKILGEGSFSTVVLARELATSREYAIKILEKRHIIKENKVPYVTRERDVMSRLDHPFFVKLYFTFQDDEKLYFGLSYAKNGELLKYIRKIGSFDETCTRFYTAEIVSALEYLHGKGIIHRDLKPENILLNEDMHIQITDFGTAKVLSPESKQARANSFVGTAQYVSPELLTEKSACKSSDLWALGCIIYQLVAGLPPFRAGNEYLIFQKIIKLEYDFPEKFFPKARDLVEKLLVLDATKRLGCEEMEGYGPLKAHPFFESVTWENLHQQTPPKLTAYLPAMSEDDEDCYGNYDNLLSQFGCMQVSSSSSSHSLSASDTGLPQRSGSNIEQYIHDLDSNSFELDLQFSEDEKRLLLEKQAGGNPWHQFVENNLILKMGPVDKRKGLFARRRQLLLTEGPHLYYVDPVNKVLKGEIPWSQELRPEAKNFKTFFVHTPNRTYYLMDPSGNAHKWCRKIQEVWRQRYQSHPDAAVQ
Kind of experiment: PDK1 kinase assay III (with Tween 20). To be noted: compound at 10 μM; PDK1 kinase assay III (values without asterisk); read-out: % CTL (residual activity of the enzyme relative to DMSO control). It counts as biochemical. The method, then: Purified enzyme may be obtained for example from the University of Dundee, Scotland.
Another PDK1 assay was developed which by comparison with PDK1 assay 1 additionally contains Tween 20:
The final concentration of Tween 20 is 0.005%.
The reaction is started by adding the ATP solution and the mixture is incubated for 90 min at ambient temperature; at the start of the reaction the dishes are shaken gently. The reaction is stopped by the addition of 50 μL/well of 500 mM phosphoric acid (H3PO4) and incubated for about 20 min at ambient temperature. […] The measured data are evaluated using Graphpad Prism software.
The % CTL values indicate the residual activity of the enzyme after the addition of the inhibitory compound in the solvent DMSO in relation to the enzyme activity in the solvent DMSO without the addition of a compound (control). The majority of the values were determined using the PDK1 kinase assay III described hereinbefore. The values marked with an asterisk (* or**) were determined using the PDK1 kinase assay II described hereinbefore (one asterisk→incubation for 24 h; two asterisks→incubation for 5 min)
With `NCCOc1cc(/C=C/CNC(=O)c2cncn(Cc3ccc(F)c(F)c3)c2=O)cc2cnc(Nc3ccc(N4CCOCC4)cc3)nc12`, the remaining activity at 10 µM worked out at 10.1%.
The result for `CN(C)Cc1ccc(Nc2ncc3cc(/C=C/CNC(=O)c4ccnn(Cc5ccc(F)c(F)c5)c4=O)ccc3n2)cc1` [IV-51, 2-(3,4-difluorobenzyl)-N-{(2E)-3-[2-({4-[(dimethylamino)methyl]phenyl}-amino)quinazolin-6-yl]prop-2-en-1-yl}-3-oxo-2,3-dihydropyridazine-4-carboxamide] reads 14.5%; that for `Cc1c(C(=O)NCC#Cc2ccc3nc(Nc4ccc(C(=O)NCCCN(C)C)cc4)ncc3c2)c(=O)n(Cc2ccc(F)c(F)c2)n1C`, 13.1%; that for `Cc1c(C(=O)NCC#Cc2ccc3nc(Nc4ccc(C(=O)NC5CCN(C)CC5)c(Cl)c4)ncc3c2)c(=O)n(Cc2ccc(F)c(F)c2)n1C`, 16.1%.
In the case of `Cc1c(C(=O)NC/C=C/c2cc(OC3CCNC3)c3nc(Nc4ccc(N5CCOCC5)cc4)ncc3c2)c(=O)n(Cc2ccc(F)c(F)c2)n1C` (stereo not shown) it was 10.3%; in that of `COCCNC(=O)c1ccc(Nc2ncc3cc(C#CCNC(=O)c4c(C)n(C)n(Cc5ccc(F)c(F)c5)c4=O)ccc3n2)cc1`, 20.1%.
In the case of `Cc1c(C(=O)NC/C=C/c2ccc3c(c2)NC(=O)/C3=C\c2ncc[nH]2)c(=O)n(Cc2ccc(F)c(F)c2)n1C` [I-41, 2-(3,4-difluorobenzyl)-N-{(2E)-3-[(3Z)-3-(1H-imidazol-2-ylmethylidene)-2-oxo-2,3-dihydro-1H-indol-6-yl]prop-2-en-1-yl}-1,5-dimethyl-3-oxo-2,3-dihydro-1H-pyrazole-4-carboxamide] it was 16.6%; in that of `O=C1Nc2cc(/C=C/CNC(=O)c3cncn(Cc4ccc(F)c(F)c4)c3=O)ccc2/C1=C/c1c[nH]c(-c2cccnc2)n1` [I-36, 1-(3,4-difluorobenzyl)-6-oxo-N-{(2E)-3-[(3Z)-2-oxo-3-{[2-(pyridin-3-yl)-1H-imidazol-4-yl]methylidene}-2,3-dihydro-1H-indol-6-yl]prop-2-en-1-yl}-1,6-dihydropyrimidine-5-carboxamide], 25.4%; in that of `Cc1c(C(=O)NCC#Cc2ccc3nc(Nc4ccccc4F)ncc3c2)c(=O)n(Cc2ccc(F)c(F)c2)n1C`, 17.1%.
Regarding `Cc1c(C(=O)NCC#Cc2ccc3nc(NC(C)C)ncc3c2)c(=O)n(Cc2ccc(F)c(F)c2)n1C`, the remaining activity at 10 µM came out at 24.4%.
The result for `CN1CCC(N(C)c2ccc(Nc3ncc4c(F)c(/C=C/CNC(=O)c5cncn(Cc6ccc(F)c(F)c6)c5=O)ccc4n3)cc2)CC1` [IV-35, 1-(3,4-difluorobenzyl)-N-{(2E)-3-[5-fluoro-2-({4-[methyl(1-methylpiperidin-4-yl)amino]phenyl}amino)quinazolin-6-yl]prop-2-en-1-yl}-6-oxo-1,6-dihydropyrimidine-5-carboxamide] reads 13.9%; that for `CCNc1ncc2cc(/C=C/CNC(=O)c3cncn(Cc4ccc(F)c(F)c4)c3=O)ccc2n1`, 23.5%; that for `Cc1c(C(=O)NCC#Cc2ccc3nc(Nc4ccc(C(=O)N(C)CCO)cc4)ncc3c2)c(=O)n(Cc2ccc(F)c(F)c2)n1C`, 14.4%.
As for `CN(C)Cc1ccc(Nc2ncc3cc(N4CC(NC(=O)c5cncn(Cc6ccc(F)c(F)c6)c5=O)C4)ccc3n2)cc1` [IV-31, 1-(3,4-difluorobenzyl)-N-{1-[2-({4-[(dimethylamino)methyl]phenyl}amino)quinazolin-6-yl]azetidin-3-yl}-6-oxo-1,6-dihydropyrimidine-5-carboxamide], the remaining activity at 10 µM amounted to 20.2%.
The result for `CNc1ncc2cc(C#CCNC(=O)c3c(C)n(C)n(Cc4ccc(F)c(F)c4)c3=O)ccc2n1` reads 14.9%; that for `Cc1c(/C=C/CNC(=O)c2c(C)n(C)n(Cc3ccc(F)c(F)c3)c2=O)c(=O)n(C(C)C)c2nc(Nc3ccc(N4CCOCC4)cc3)ncc12` [IV-37, 2-(3,4-difluorobenzyl)-1,5-dimethyl-N-{(2E)-3-[5-methyl-2-{[4-(morpholin-4-yl)phenyl]amino}-7-oxo-8-(propane-2-yl)-7,8-dihydropyrido[2,3-c]pyrimidin-6-yl]prop-2-en-1-yl}-3-oxo-2,3-dihydro-1H-pyrazole-4-carboxamide], 15.4%.
In the case of `Cc1c(C(=O)NCC#Cc2ccc3nc(Nc4ccc(N(C)C)cc4)ncc3c2)c(=O)n(Cc2ccc(F)c(F)c2)n1C` it was 14.3%; in that of `CC(C)n1c(=O)c(C#CCNC(=O)c2cncn(Cc3ccc(F)c(F)c3)c2=O)cc2cnc(Nc3ccc(N4CCOCC4)cc3)nc21` [IV-59, 1-(3,4-difluorobenzyl)-N-{3-[2-{[4-(morpholin-4-yl)phenyl]amino}-7-oxo-8-(propane-2-yl)-7,8-dihydropyrido[2,3-c]pyrimidin-6-yl]prop-2-yn-1-yl}-6-oxo-1,6-dihydropyrimidine-5-carboxamide], 12.9%; in that of `CNc1ncc2cc(/C=C/CNC(=O)c3cncn(Cc4ccc(F)c(F)c4)c3=O)ccc2n1`, 21.7%.
In the case of `CN1CCC(Nc2ccc(Nc3ncc4cc(/C=C/CNC(=O)c5cncn(Cc6ccc(F)c(F)c6)c5=O)ccc4n3)cc2F)CC1` [IV-46, 1-(3,4-difluorobenzyl)-N-{(2E)-3-[2-({3-fluoro-4-[(1-methylpiperidin-4-yl)amino]-phenyl}amino)quinazolin-6-yl]prop-2-en-1-yl}-6-oxo-1,6-dihydropyrimidine-5-carboxamide] it was 11.9%; in that of `CN(C)Cc1ccc(Nc2ncc3cc(/C=C/CNC(=O)c4cn(C)c(=O)n(Cc5ccc(F)c(F)c5)c4=O)ccc3n2)cc1` [IV-22, 3-(3,4-difluorobenzyl)-N-{(2E)-3-[2-({4-[(dimethylamino)methyl]phenyl}amino)-quinazolin-6-yl]prop-2-en-1-yl}-1-methyl-2,4-dioxo-1,2,3,4-tetrahydropyrimidine-5-carboxamide], 19.7%; in that of `Cc1c[nH]c(/C=C2\C(=O)Nc3cc(/C=C/CNC(=O)c4cncn(Cc5ccc(F)c(F)c5)c4=O)ccc32)n1` [I-38, 1-(3,4-difluorobenzyl)-N-[(2E)-3-{(3Z)-3-[(4-methyl-1H-imidazol-2-yl)methylidene]-2-oxo-2,3-dihydro-1H-indol-6-yl}prop-2-en-1-yl]-6-oxo-1,6-dihydropyrimidine-5-carboxamide], 20.5%.
In the case of `CN(C)Cc1ccc(Nc2ncc3cc(/C=C/CNC(=O)c4cc(Cl)nn(Cc5ccc(F)c(F)c5)c4=O)ccc3n2)cc1` [IV-39, 6-chloro-2-(3,4-difluorobenzyl)-N-{(2E)-3-[2-({4-[(dimethylamino)methyl]phenyl}amino)quinazolin-6-yl]prop-2-en-1-yl}-3-oxo-2,3-dihydropyridazine-4-carboxamide], the remaining activity at 10 µM is 17.9%.
In the case of `CN1CCC(N(C)c2ccc(Nc3ncc4cc(/C=C/CNC(=O)c5nc(Cl)cn(Cc6ccc(F)c(F)c6)c5=O)ccc4n3)cc2)CC1` it was 12.6%; in that of `COc1cc(C(=O)NC2CCN(C)CC2)ccc1Nc1ncc2cc(C#CCNC(=O)c3c(C)n(C)n(Cc4ccc(F)c(F)c4)c3=O)ccc2n1`, 61.8%.
